Laboratory results as given in the supplement of paper PMC10307832.

How the values were obtained:
Experiment in all cases: relative viability (nuclei count vs DMSO), 5 days (fraction); higher = more cells survive
Pemetrexed + OSI-027 = compound: Nc1nc2[nH]cc(CCc3ccc(C(=O)N[C@@H](CCC(=O)O)C(=O)O)cc3)c2c(=O)[nH]1 [Pemetrexed] + COc1cccc2cc(-c3nc([C@H]4CC[C@H](C(=O)O)CC4)n4ncnc(N)c34)[nH]c12 [OSI-027] (partner 0.5 µM)
In short: (§1)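 Lung cancer cell lines were pin-tool dosed in 1536-well plates on the day after seeding, with either a lone drug or a fixed anchor-drug dose plus five library-drug doses (not always all listed) in √10 steps. Nuclei were counted on 4× images after 5 days. Relative viability is the ratio of treated-well to vehicle-well nuclei counts, with each value a median of duplicate plates.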

Idelalisib + Phenformin = compound: CC[C@H](Nc1ncnc2[nH]cnc12)c1nc2cccc(F)c2c(=O)n1-c1ccccc1 [Idelalisib] + N=C(N)NC(=N)NCCc1ccccc1 [Phenformin] (partner 250 µM)
In short: as §1

Idelalisib + Linsitinib = compound: CC[C@H](Nc1ncnc2[nH]cnc12)c1nc2cccc(F)c2c(=O)n1-c1ccccc1 [Idelalisib] + C[C@]1(O)C[C@@H](c2nc(-c3ccc4ccc(-c5ccccc5)nc4c3)c3c(N)nccn32)C1 [Linsitinib] (partner 1 µM)
In short: as §1

Pemetrexed + Palbociclib = compound: Nc1nc2[nH]cc(CCc3ccc(C(=O)N[C@@H](CCC(=O)O)C(=O)O)cc3)c2c(=O)[nH]1 [Pemetrexed] + CC(=O)c1c(C)c2cnc(Nc3ccc(N4CCNCC4)cn3)nc2n(C2CCCC2)c1=O [Palbociclib] (partner 0.5 µM)
In short: as §1

Cell Line | relative viability (Pemetrexed + OSI-027; first compound 0.002 µM) | relative viability (Pemetrexed + OSI-027; first compound 0.006325 µM) | relative viability (Pemetrexed + OSI-027; first compound 0.02 µM) | relative viability (Pemetrexed + OSI-027; first compound 0.06325 µM) | relative viability (Pemetrexed + OSI-027; first compound 0.2 µM) | relative viability (Idelalisib + Phenformin; first compound 0.04 µM) | relative viability (Idelalisib + Phenformin; first compound 0.1265 µM) | relative viability (Idelalisib + Phenformin; first compound 0.4 µM) | relative viability (Idelalisib + Phenformin; first compound 1.265 µM) | relative viability (Idelalisib + Phenformin; first compound 4 µM) | relative viability (Idelalisib + Linsitinib; first compound 0.04 µM) | relative viability (Idelalisib + Linsitinib; first compound 0.1265 µM) | relative viability (Idelalisib + Linsitinib; first compound 0.4 µM) | relative viability (Idelalisib + Linsitinib; first compound 1.265 µM) | relative viability (Idelalisib + Linsitinib; first compound 4 µM) | relative viability (Pemetrexed + Palbociclib; first compound 0.002 µM) | relative viability (Pemetrexed + Palbociclib; first compound 0.006325 µM) | relative viability (Pemetrexed + Palbociclib; first compound 0.02 µM) | relative viability (Pemetrexed + Palbociclib; first compound 0.06325 µM) | relative viability (Pemetrexed + Palbociclib; first compound 0.2 µM)
HCC-827 | 0.663 | 0.756 | 0.899 | 0.764 | 0.591 | 0.424 | 0.393 | 0.37 | 0.352 | 0.323 | 0.958 | 0.961 | 0.96 | 0.885 | 0.965 | 0.386 | 0.413 | 0.529 | 0.44 | 0.327
COR-L23 | 0.699 | 0.781 | 0.799 | 0.275 | 0.163 | 0.439 | 0.39 | 0.411 | 0.433 | 0.517 | 1 | 1.04 | 0.745 | 0.822 | 0.864 | 0.21 | 0.275 | 0.254 | 0.149 | 0.127
NCI-H3122 | 0.857 | 0.879 | 0.923 | 0.524 | 0.221 | 0.389 | 0.371 | 0.403 | 0.41 | 0.388 | 0.953 | 0.952 | 1.03 | 0.935 | 0.894 | 0.164 | 0.192 | 0.206 | 0.222 | 0.165
NCI-H1793 | 0.251 | 0.259 | 0.309 | 0.284 | 0.289 | 0.388 | 0.369 | 0.288 | 0.335 | 0.224 | 1.02 | 0.852 | 0.505 | 0.797 | 0.582 | 0.306 | 0.291 | 0.326 | 0.278 | 0.295
BEN | 0.318 | 0.301 | 0.302 | 0.296 | 0.332 | 0.277 | 0.27 | 0.262 | 0.28 | 0.281 | 0.908 | 0.935 | 0.706 | 0.931 | 0.696 | 0.544 | 0.473 | 0.531 | 0.457 | 0.458
NCI-H647 | 0.467 | 0.492 | 0.806 | 0.744 | 0.318 | 0.673 | 0.498 | – | 0.38 | 0.299 | 0.882 | 1.19 | 0.93 | 0.805 | 0.976 | 0.353 | 0.352 | 0.393 | 0.288 | 0.158
PC-14 | 0.681 | 0.769 | 1.16 | 0.197 | 0.102 | 0.746 | 0.784 | 0.516 | 0.409 | 0.669 | 0.971 | 0.978 | 0.929 | 0.97 | 0.901 | 0.578 | 0.501 | 0.471 | 0.185 | 0.118
HCC-78 | 0.326 | 0.354 | 0.395 | 0.336 | 0.293 | 0.945 | 0.647 | 0.582 | 0.751 | 0.674 | 0.254 | 0.514 | 0.346 | 0.45 | 0.226 | 0.443 | 0.484 | 0.441 | 0.417 | 0.424
NCI-H1666 | 0.961 | 0.758 | 0.955 | 0.906 | 0.79 | 0.618 | 0.57 | 0.539 | 0.583 | 0.546 | 0.881 | 0.873 | 0.73 | 0.629 | 0.552 | 0.666 | 0.647 | 0.704 | 0.674 | 0.623
COR-L 105 | 0.735 | 0.638 | 1.01 | 0.646 | 0.619 | 0.592 | 0.473 | 0.433 | 0.564 | 0.421 | 1.05 | 0.83 | 0.793 | 0.806 | 0.595 | 0.295 | 0.424 | 0.399 | 0.396 | 0.423
LU99A | 0.334 | 0.267 | 0.326 | 0.292 | 0.313 | 1.06 | 0.836 | 0.737 | 0.988 | 1.01 | 0.473 | 0.528 | 0.489 | 0.43 | 0.446 | 0.409 | 0.389 | 0.407 | 0.397 | 0.407
201T | 0.748 | 0.739 | 0.748 | 0.617 | 0.406 | 0.497 | 0.416 | 0.328 | 0.488 | 0.423 | 1.09 | 1.02 | 0.937 | 0.933 | 0.926 | 0.396 | 0.352 | 0.365 | 0.335 | 0.362
HCC-15 | 0.592 | 0.668 | 0.76 | 0.501 | 0.203 | 0.498 | 0.511 | 0.389 | 0.587 | 0.5 | 0.909 | 0.866 | 0.857 | 0.89 | 0.873 | 0.661 | 0.712 | 0.717 | 0.669 | 0.309
